For one assay, the system named is PC3 cells. The assay is described as follows: NAMPT Cell Proliferation Assay. The assay is classed as cell-based. Particulars: Homo sapiens, PC-3, 120 h, 5 days incubation, cell viability by Cell Titer Glo. Put shortly: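 PC3 cells were plated at 500 cells/well in RPMI with 10% heat-inactivated FBS, left to attach overnight, then given compounds in 10-fold dilutions from 10 μM to 1×10^−5 μM. After 5 days at 37° C and 5% CO2, viability was read by luminescence and IC50s came from sigmoidal fits of percent inhibition.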
For orientation: ATP-based viability assays read luminescence as a measure of living cells.

The target of a further assay is NAMPT (Homo sapiens, UniProt P43490). The assay is described as follows: TR-FRET Binding Assay of NAMPT with PRPP. As to conditions: with 200 μM PRPP and 2.5 mM ATP; 2 nM NAMPT, 2 nM probe, 16 hours equilibration. Put shortly:
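TR-FRET probe-displacement binding with 2 nM NAMPT, 2 nM probe and 1 nM Tb-anti-His antibody, run in the presence of 200 μM PRPP and 2.5 mM ATP at 2% DMSO. Equilibrated 16 hours before reading so test compounds could undergo enzymatic modification.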
(In general: In TR-FRET formats the signal depends on donor and acceptor labels being close together.)

Assay [1] has as its target NAMPT (human, recombinant, C-terminally His-tagged) (Homo sapiens, UniProt P43490). The assay is described as follows: Time-Resolved Fluorescence Resonance Energy Transfer (TR-FRET) Binding Assay of NAMPT. As to conditions: without substrates; 6.8 nM NAMPT, 200 nM probe, 3 hours equilibration. The gist of the method: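 11-pt half-log compound series; final 6.8 nM NAMPT, 200 nM OG488 nicotinamide-competitive probe, 1 nM Tb-anti-His Ab, 2% DMSO, HEPES pH 7.5/NaCl/MgCl2/DTT/glycerol buffer. 3 h RT equilibration. Em520/Em495 ratio (Ex 337 nm), control-normalized, 4-parameter fit → IC50.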

We go through 25 compounds from patent US9187472B2 (AbbVie Inc., priority 2012, dated 2015).

Broadly, the IC50 is the point on the concentration scale where inhibition reaches its midpoint.

Each structure is given as a SMILES string.

Chain of NAMPT (human, recombinant, C-terminally His-tagged) (P43490 whole entry): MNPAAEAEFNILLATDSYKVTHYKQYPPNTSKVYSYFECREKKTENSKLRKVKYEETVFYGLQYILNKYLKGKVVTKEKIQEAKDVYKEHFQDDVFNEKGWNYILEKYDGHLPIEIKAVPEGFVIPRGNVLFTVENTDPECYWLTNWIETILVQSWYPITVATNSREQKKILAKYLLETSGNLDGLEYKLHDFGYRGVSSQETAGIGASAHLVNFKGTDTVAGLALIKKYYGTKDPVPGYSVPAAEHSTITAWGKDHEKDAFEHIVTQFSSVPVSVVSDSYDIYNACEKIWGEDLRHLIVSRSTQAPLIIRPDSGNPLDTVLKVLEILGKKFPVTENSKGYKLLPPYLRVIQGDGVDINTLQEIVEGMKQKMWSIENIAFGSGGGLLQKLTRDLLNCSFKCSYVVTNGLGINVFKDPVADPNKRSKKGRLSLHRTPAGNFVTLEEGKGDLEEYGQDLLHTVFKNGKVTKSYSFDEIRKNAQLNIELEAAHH
Chain of NAMPT (P43490 whole entry): as above

With `O=C(CC1CCCC1)Nc1ccc(C(=O)NCc2cn3ccnc3cn2)cc1` [Example 679, 4-[(cyclopentylacetyl)amino]-N-(imidazo[1,2-a]pyrazin-6-ylmethyl)benzamide], the concentration for half-maximal inhibition (IC50) in the assay on PC3 cells was found to be 10.9 nM; on NAMPT it was 1.74 nM; in assay [1] it was 22.8 nM.
For `Cc1cc(CC(=O)N(CC2CCCO2)c2ncc(C(=O)NCc3ccc4nccn4c3)s2)nn1C` (stereo not drawn) [Example 190, 2-{[(1,5-dimethyl-1H-pyrazol-3-yl)acetyl](tetrahydrofuran-2-ylmethyl)amino}-N-(imidazo[1,2-a]pyridin-6-ylmethyl)-1,3-thiazole-5-carboxamide], in that order: 14.9 nM, 4.57 nM and 400 nM.
With `CC(C)C(=O)N1CC(c2ccc(C(=O)NCc3ccn4ccnc4c3)cc2)C1` [Example 490, N-(imidazo[1,2-a]pyridin-7-ylmethyl)-4-[1-(2-methylpropanoyl)azetidin-3-yl]benzamide], the IC50 in the assay with PC3 cells stood at 89.9 nM; on NAMPT, 0.267 nM; in assay [1] it was 753 nM.
For `CC(C)C(=O)N1CC[C@@H](Oc2ccc(C(=O)NCc3ccn4ccnc4c3)cc2)C1` [Example 492, N-(imidazo[1,2-a]pyridin-7-ylmethyl)-4-{[(3R)-1-(2-methylpropanoyl)pyrrolidin-3-yl]oxy}benzamide], in that order: 1270 nM, 0.863 nM and over 10000 nM.
In the same order, the values of `CCC(C)(C)C(=O)N1CCC(c2ccc(C(=O)NCc3ccn4ccnc4c3)s2)C1` (stereo not drawn) [Example 791, 5-[1-(2,2-dimethylbutanoyl)pyrrolidin-3-yl]-N-(imidazo[1,2-a]pyridin-7-ylmethyl)thiophene-2-carboxamide] are 0.898 nM, 1.15 nM and 47.1 nM.
In the same order, the values of `CC(C)C(=O)N1CC=C(c2ccc(NC(=O)Nc3ccc4nccn4c3)cc2)CC1` [Example 38, 1-imidazo[1,2-a]pyridin-6-yl-3-{4-[1-(2-methylpropanoyl)-1,2,3,6-tetrahydropyridin-4-yl]phenyl}urea] are 65.9 nM, 0.266 nM and 243 nM.
Turning to `Cn1cc(C(=O)N2CCC(c3ccc(C(=O)NCc4ccn5ccnc5c4)s3)C2)cn1` (stereo not drawn) [Example 775, N-(imidazo[1,2-a]pyridin-7-ylmethyl)-5-{1-[(1-methyl-1H-pyrazol-4-yl)carbonyl]pyrrolidin-3-yl}thiophene-2-carboxamide], the IC50 was found to be 60.9 nM in the assay on PC3 cells, 0.538 nM on NAMPT and 51.9 nM in assay [1].
For `O=C(NCc1ccn2ccnc2c1)c1ccc(C2CCN(C(=O)c3cccc(Cl)c3)C2)cc1` (stereo not drawn) [Example 597, 4-[1-(3-chlorobenzoyl)pyrrolidin-3-yl]-N-(imidazo[1,2-a]pyridin-7-ylmethyl)benzamide], in that order: 33.5 nM, 0.862 nM and 232 nM.
In the same order, the values of `CC(C)[C@@H]1COC(=O)N1c1ncc(C(=O)NCc2ccn3ccnc3c2)s1` [Example 181, N-(imidazo[1,2-a]pyridin-7-ylmethyl)-2-[(4R)-2-oxo-4-(propan-2-yl)-1,3-oxazolidin-3-yl]-1,3-thiazole-5-carboxamide] are 7.75 nM, 0.283 nM and 349 nM.
For `C[C@@H](O)Cn1cc(-c2ccc(C(=O)NCc3ccn4ccnc4c3)s2)cn1` [Example 304, 5-{1-[(2R)-2-hydroxypropyl]-1H-pyrazol-4-yl}-N-(imidazo[1,2-a]pyridin-7-ylmethyl)thiophene-2-carboxamide], in that order: 18.8 nM, 0.169 nM and 66.2 nM.
With `O=C(NCc1ccn2ccnc2c1)c1ccc(C2CCN(C(=O)Cc3cc(F)cc(F)c3)C2)s1` (stereo not drawn) [Example 764, 5-{1[(3,5-difluorophenyl)acetyl]pyrrolidin-3-yl}-N-(imidazo[1,2-a]pyridin-7-ylmethyl)thiophene-2-carboxamide], the IC50 in the assay with PC3 cells amounted to 68.7 nM; at NAMPT it was 0.465 nM; in assay [1], 135 nM.
In the same order, the values of `CC(C)CC1CCCN1C(=O)c1ccc(C(=O)NCc2ccn3ccnc3c2)s1` (stereo not drawn) [Example 824, N-(imidazo[1,2-a]pyridin-7-ylmethyl)-5-{[2-(2-methylpropyl)pyrrolidin-1-yl]carbonyl}thiophene-2-carboxamide] are 12.4 nM, 0.566 nM and 118 nM.
For `O=C(NCc1ccn2ccnc2c1)c1ccc(C2CCN(C(=O)Cc3ccccc3)CC2)cc1` [Example 707, N-(imidazo[1,2-a]pyridin-7-ylmethyl)-4-[1-(phenylacetyl)piperidin-4-yl]benzamide], in that order: 74.1 nM, 0.624 nM and 277 nM.
For `CC(C)CCC(=O)Nc1ccc(NC(=O)NCc2ccn3ccnc3c2)cc1` [Example 280, N-(4-{[(imidazo[1,2-a]pyridin-7-ylmethyl)carbamoyl]amino}phenyl)-4-methylpentanamide], in that order: 13 nM, 0.213 nM and 11.3 nM.
In the case of `O=C(NCc1ccn2ccnc2c1)c1ccc(C2CCN(C(=O)CC3CCCC3)C2)cc1` (stereo not drawn) [Example 581, 4-[1-(cyclopentylacetyl)pyrrolidin-3-yl]-N-(imidazo[1,2-a]pyridin-7-ylmethyl)benzamide], the figures for the IC50 (with PC3 cells; on NAMPT; in assay [1]) were 81.2 nM, 1.09 nM and 945 nM, respectively.
With `CC[C@H](C)C(=O)N1CCC(c2ccc(C(=O)NCc3ccn4ccnc4c3)cc2)CC1` [Example 238, N-(imidazo[1,2-a]pyridin-7-ylmethyl)-4-{1-[(2S)-2-methylbutanoyl]piperidin-4-yl}benzamide], the IC50 in the assay on PC3 cells stood at 2.57 nM; on NAMPT it was 0.187 nM; in assay [1] it was 123 nM.
For `CC[C@H](C)C(=O)N1CC(Oc2ccc(C(=O)NCc3ccn4ccnc4c3)cc2)C1` [Example 559, N-(imidazo[1,2-a]pyridin-7-ylmethyl)-4-({1-[(2S)-2-methylbutanoyl]azetidin-3-yl}oxy)benzamide], in that order: 94.3 nM, 0.223 nM and 681 nM.
In the case of `O=C(NCc1ccn2ccnc2c1)Nc1ccc(OC2CN(C(=O)[C@@H]3CCCO3)C2)cc1` [Example 432, 1-(imidazo[1,2-a]pyridin-7-ylmethyl)-3-[4-({1-[(2S)-tetrahydrofuran2-ylcarbonyl]azetidin-3-yl}oxy)phenyl]urea], the half-maximal inhibitory concentration (IC50) was 36.3 nM with PC3 cells, 0.33 nM at NAMPT and 304 nM in assay [1].
With `O=C(NCc1ccn2ccnc2c1)c1ccc(C2CCN(C(=O)[C@@H]3CCOC3)CC2)cc1` [Example 309, N-(imidazo[1,2-a]pyridin-7-ylmethyl)-4-{1-[(3R)-tetrahydrofuran-3-ylcarbonyl]piperidin-4-yl}benzamide], the IC50 worked out at 54.8 nM in the assay with PC3 cells, 0.169 nM at NAMPT and 117 nM in assay [1].
In the same order, the values of `O=C(NCc1ccn2ccnc2c1)c1ccc(C2CN(C(=O)c3ccsc3)C2)cc1` [Example 668, N-(imidazo[1,2-a]pyridin-7-ylmethyl)-4-[1-(thiophen-3-ylcarbonyl)azetidin-3-yl]benzamide] are 80.3 nM, 1.1 nM and 263 nM.
In the same order, the values of `O=C(NCc1ccc2nccn2c1)c1cnc(N2C(=O)OCC2C2CCOC2)s1` (stereo not drawn) [Example 116, N-(imidazo[1,2-a]pyridin-6-ylmethyl)-2-[2-oxo-4-(tetrahydrofuran-3-yl)-1,3-oxazolidin-3-yl]-1,3-thiazole-5-carboxamide] are 61.3 nM, 0.69 nM and 863 nM.
On to `O=C(CC1CCCC1)Nc1ccc(C(=O)NCc2ccn3ccnc3c2)cc1F` [Example 305, 4-[(cyclopentylacetyl)amino]-3-fluoro-N-(imidazo[1,2-a]pyridin-7-ylmethyl)benzamide], for which the concentration for half-maximal inhibition (IC50) with PC3 cells was 1170 nM; on NAMPT, 0.449 nM; in assay [1], 494 nM.
In the same order, the values of `CC(C)(C)OC(=O)N1CCC(c2ccc(NC(=O)NCc3cn4ccnc4cn3)cc2)CC1` [Example 680, tert-butyl 4-(4-{[(imidazo[1,2-a]pyrazin-6-ylmethyl)carbamoyl]amino}phenyl)piperidine-1-carboxylate] are 629 nM, 2.38 nM and 37.1 nM.
For `CC(C)Cn1cc(-c2ccc(C(=O)NCc3ccn4ccnc4c3)cc2)cn1` [Example 315, N-(imidazo[1,2-a]pyridin-7-ylmethyl)-4-[1-(2-methylpropyl)-1H-pyrazol-4-yl]benzamide], in that order: 720 nM, 0.32 nM and 231 nM.
For `O=C(NCc1ccn2ccnc2c1)c1ccc(N2C[C@H](O)CC2=O)s1` [Example 267, 5-[(4R)-4-hydroxy-2-oxopyrrolidin-1-yl]-N-(imidazo[1,2-a]pyridin-7-ylmethyl)thiophene-2-carboxamide], in that order: 665 nM, 0.291 nM and 54.3 nM.
